Key:
human orexin-1 receptor = human orexin-1 receptor (Homo sapiens (Human), UniProt O43613); assay: In vitro assay: intracellular calcium measurements (FLIPR), antagonistic activity; type: cell-based; conditions: CHO cells expressing human orexin-1 receptor, orexin-A agonist, geometric mean, read-out: IC50 Ox1
Summary of the method: (§1)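 In this FLIPR calcium assay, antagonists were given 120 min on CHO cells with human OX1 or OX2 receptor before orexin-A (3 nM final) was added. Peak fluorescence was measured at 1 s intervals against the uninhibited agonist peak, and IC50s were averaged geometrically.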

human orexin-2 receptor = human orexin-2 receptor (Homo sapiens (Human), UniProt O43614); assay: as above; type: cell-based; conditions: CHO cells expressing human orexin-2 receptor, orexin-A agonist, geometric mean, read-out: IC50 Ox2
Summary of the method: as §1

Chain of human orexin-1 receptor (O43613 whole entry): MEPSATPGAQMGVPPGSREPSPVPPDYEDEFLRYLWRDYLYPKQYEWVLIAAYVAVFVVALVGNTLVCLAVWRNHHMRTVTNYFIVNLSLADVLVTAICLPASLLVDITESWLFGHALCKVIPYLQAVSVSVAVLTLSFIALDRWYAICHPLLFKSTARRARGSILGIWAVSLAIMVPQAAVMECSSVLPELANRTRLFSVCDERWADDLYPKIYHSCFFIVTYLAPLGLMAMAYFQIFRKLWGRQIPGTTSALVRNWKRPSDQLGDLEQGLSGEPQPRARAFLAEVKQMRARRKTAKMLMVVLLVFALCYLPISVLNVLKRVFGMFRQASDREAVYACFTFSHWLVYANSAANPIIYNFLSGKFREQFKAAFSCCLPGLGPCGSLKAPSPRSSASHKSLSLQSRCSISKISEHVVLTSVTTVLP
Chain of human orexin-2 receptor (O43614 whole entry): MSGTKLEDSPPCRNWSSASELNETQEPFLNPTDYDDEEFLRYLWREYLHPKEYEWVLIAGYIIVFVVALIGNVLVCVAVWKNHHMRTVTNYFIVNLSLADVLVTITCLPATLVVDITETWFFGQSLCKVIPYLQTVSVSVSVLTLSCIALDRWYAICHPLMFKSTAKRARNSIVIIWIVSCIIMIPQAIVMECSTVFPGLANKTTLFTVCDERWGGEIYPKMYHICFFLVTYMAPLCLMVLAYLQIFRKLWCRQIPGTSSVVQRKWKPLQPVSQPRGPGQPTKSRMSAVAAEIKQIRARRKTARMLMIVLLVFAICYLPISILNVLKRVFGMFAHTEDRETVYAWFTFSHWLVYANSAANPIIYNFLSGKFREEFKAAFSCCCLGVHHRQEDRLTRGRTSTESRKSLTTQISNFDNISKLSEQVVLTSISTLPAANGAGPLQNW

| Compound | IC50 (human orexin-1 receptor) [nM] | IC50 (human orexin-2 receptor) [nM] |
| --- | --- | --- |
| Cc1ccc(-c2ccc(C#N)cc2)c(C(=O)N2CCC[C@@]2(C)c2nc3cc(C(F)(F)F)ccc3[nH]2)c1 [Ex. 5.193] | 24 | 203 |
| Cc1nc(C(=O)N2CCCC2c2nc3cc(C)c(C)cc3[nH]2)c(-c2ccccc2)s1 (stereo not shown) [Ex. 1.122] | 55 | 45 |
| Cc1cc2[nH]c([C@@H]3[C@@H](C)CCN3C(=O)c3c(-c4ccccn4)ccc(C)c3F)nc2cc1Cl [Ex. 4.113] | 9 | 2040 |
| C[C@@]1(c2nc3cc(C(F)(F)F)ccc3[nH]2)CCCN1C(=O)c1cc(-c2cccc(C#N)c2)ccc1-n1nccn1 [Ex. 5.295] | 8 | 254 |
| Cc1nc(C(=O)N2CCCC2c2nc3c(C)c(C)ccc3[nH]2)c(-c2ccccc2)s1 (stereo not shown) [Ex. 1.139] | 103 | 26 |
| Cc1ccc(-c2cccc(OC(F)(F)F)c2)c(C(=O)N2CCC[C@@]2(C)c2nc3cc(C(F)(F)F)c(Cl)cc3[nH]2)c1 [Ex. 5.163] | 142 | 401 |
| CSc1cccc2nc([C@@H]3CCCN3C(=O)c3cc(F)ccc3-n3nccn3)[nH]c12 [Ex. 1.163] | 167 | 17 |
| Cc1nc(C(=O)N2CCC[C@@]2(C)c2nc3cc(OC(F)(F)F)ccc3[nH]2)c(-c2cccc(Cl)c2Cl)s1 [Ex. 5.244] | 62 | 641 |
| COc1ccc(-c2ccc(C)cc2)c(C(=O)N2CCC[C@@]2(C)c2nc3ccc(Cl)c(C)c3[nH]2)c1F [Ex. 5.302] | 28 | 42 |
| Cc1nc(C(=O)N2CCCC2c2nc3cc(Cl)c(Cl)cc3[nH]2)c(-c2ccccc2)s1 (stereo not shown) [Ex. 1.119] | 27 | 77 |
| Cc1cc(Cl)cc2[nH]c([C@@H]3[C@@H](C)CCN3C(=O)c3cc(Cl)ccc3-n3nccn3)nc12 [Ex. 4.91] | 17 | 183 |
| COc1ccc2nc([C@@H]3CCCN3C(=O)c3nc(C)sc3-c3ccc(Br)cc3)[nH]c2c1 [Ex. 1.18] | 935 | 153 |
| CO[C@@H]1C[C@@H](c2nc3c(C)c(Cl)ccc3[nH]2)N(C(=O)c2cc(C)ccc2-n2nccn2)C1 [Ex. 3.2] | 13 | 6 |
| Cc1ccc(-n2nccn2)c(C(=O)N2CC[C@H](C)[C@H]2c2nc3cc(C(F)(F)F)ccc3[nH]2)c1 [Ex. 4.29] | 30 | 353 |
| Cc1nc(C(=O)N2CCCC2c2nc3c(Br)cc(F)cc3[nH]2)c(-c2ccccc2)s1 (stereo not shown) [Ex. 1.138] | 35 | 109 |
| COc1ccc2nc([C@@H]3CCCN3C(=O)c3nc(C)sc3-c3ccc(C)cc3)[nH]c2c1 [Ex. 1.22] | 415 | 52 |
| Cc1ccccc1-c1nc(C(=O)N2CCC[C@@]2(C)c2nc3cc(Cl)c(C(F)(F)F)cc3[nH]2)c(-c2ccc(F)cc2)s1 [Ex. 5.286] | 40 | 4590 |
| COc1ccc(-n2nccn2)c(C(=O)N2CCC[C@@]2(C)c2nc3cc(C)c(C)cc3[nH]2)c1F [Ex. 5.55] | 113 | 202 |
| CSc1ccc2[nH]c([C@@H]3CCCN3C(=O)c3cc(C)ccc3-n3nccn3)nc2c1 [Ex. 1.7] | 93 | 5 |
| COc1cc(C(=O)N2CCC[C@@]2(C)c2nc3c(C)c(Cl)ccc3[nH]2)c(-n2nccn2)cc1OC [Ex. 5.39] | 36 | 20 |
| COc1cccc(-c2nc(C)ncc2C(=O)N2CCC[C@H]2c2nc3ccc(SC)cc3[nH]2)c1 [Ex. 1.56] | 252 | 88 |

| Compound | IC50 (human orexin-1 receptor) [nM] | IC50 (human orexin-2 receptor) [nM] |
| --- | --- | --- |
| Cc1c(Cl)ccc2[nH]c([C@@H]3[C@@H](C)CCN3C(=O)c3cc(F)ccc3-c3ncccn3)nc12 [Ex. 4.175] | 14 | 249 |
| Cc1nc(C(=O)N2CC[C@H](C)[C@H]2c2nc3cc(C(F)(F)F)ccc3[nH]2)c(-c2ccc(F)c(F)c2)s1 [Ex. 4.143] | 24 | 3680 |
| CSc1cccc2[nH]c([C@@H]3CCCN3C(=O)c3c(-n4nccn4)ccc(C)c3F)nc12 [Ex. 1.174] | 68 | 87 |
| C[C@@]1(c2nc3cc(C(F)(F)F)ccc3[nH]2)CCCN1C(=O)c1cc(Cl)ccc1-n1nccn1 [Ex. 5.166] | 13 | 59 |
| Cc1nc(C(=O)N2CCC[C@H]2c2nc3c(O)cccc3[nH]2)c(-c2cccc(Cl)c2)s1 [Ex. 1.12] | 273 | 344 |
| COc1ccc(-c2sc(C)nc2C(=O)N2CC[C@H](C)[C@H]2c2nc3cc(C(F)(F)F)ccc3[nH]2)cc1 [Ex. 4.141] | 5 | 2760 |
| CO[C@@H]1C[C@@H](c2nc3ccc(Cl)c(C)c3[nH]2)N(C(=O)c2ccccc2-c2ccc(F)c(C)c2)C1 [Ex. 3.40] | 8 | 7 |
| Cc1ccc(-c2ccccc2)c(C(=O)N2CCC[C@@]2(C)c2nc3c(C)c(C)c(Br)cc3[nH]2)c1 [Ex. 5.270] | 7 | 9 |
| Cc1nc(C(=O)N2CCC[C@@]2(C)c2nc3c(C)c(Cl)ccc3[nH]2)c(-c2cccc(Cl)c2)s1 [Ex. 5.5] | 3 | 5 |
| Cc1ccc(-n2nccn2)c(C(=O)N2C[C@H](F)C[C@H]2c2nc3c(C)cccc3[nH]2)c1 [Ex. 2.11] | 69 | 124 |
| CO[C@H]1C[C@@H](c2nc3c(C)cccc3[nH]2)N(C(=O)c2nc(C)sc2-c2ccccc2)C1 [Ex. 3.3] | 1290 | 255 |
| Cc1nc(C(=O)N2CC[C@H](C)[C@H]2c2nc3c(C(F)(F)F)cccc3[nH]2)c(-c2cc(F)cc(F)c2)s1 [Ex. 4.157] | 13 | 1710 |
| COc1cc2nc([C@]3(C)CCCN3C(=O)c3nc(C)ccc3-n3nccn3)[nH]c2cc1OC [Ex. 5.85] | 316 | 114 |
| CSc1ccc2nc([C@@H]3CCCN3C(=O)c3nccnc3-c3cc(C)cc(F)c3)[nH]c2c1 [Ex. 1.45] | 501 | 109 |
| Cc1ccc(-c2ccccn2)c(C(=O)N2CC[C@H](C)[C@H]2c2nc3c(C)c(Cl)ccc3[nH]2)c1 [Ex. 4.161] | 2 | 191 |
| CSc1cccc2nc([C@@H]3CCCN3C(=O)c3ccccc3-n3nccn3)[nH]c12 [Ex. 1.76] | 279 | 17 |
| Cc1nc(C(=O)N2CCC[C@H]2c2nc3cc(Cl)ccc3[nH]2)c(-c2cccc(Cl)c2)s1 [Ex. 1.10] | 98 | 248 |
| COc1cc2nc([C@@H]3[C@@H](C)CCN3C(=O)c3nc(C)sc3-c3ccc(F)cc3)[nH]c2cc1OC [Ex. 4.54] | 21 | 2320 |
| Cc1ccc(-c2ccccc2C(=O)N2CC[C@H](C)[C@H]2c2nc3c(C)c(Cl)ccc3[nH]2)cc1 [Ex. 4.61] | 0.9 | 72 |
| Cc1c(Cl)ccc2nc([C@]3(C)CCCN3C(=O)c3cc(F)ccc3-c3cccnc3)[nH]c12 [Ex. 5.220] | 98 | 249 |

Now from value to molecule:

| IC50 (human orexin-1 receptor) [nM] | IC50 (human orexin-2 receptor) [nM] | Compound |
| --- | --- | --- |
| 28 | 28 | COc1cc2nc([C@]3(C)CCCN3C(=O)c3cc(C)ccc3-n3nccn3)n(C)c2cc1OC [Ex. 7.9] |
| 33 | 40 | COc1cc2nc([C@]3(C)CCCN3C(=O)c3cc(C)ccc3-n3nccn3)n(CCF)c2cc1OC [Ex. 7.48] |
| 259 | 72 | C=C1C[C@@H](c2nc3cc(C(C)(C)C)ccc3[nH]2)N(C(=O)c2c(-n3nccn3)ccc(OC)c2F)C1 [Ex. 6.163] |
| 8 | 23 | C=C1CC(c2nc3c(OC)ccc(OC)c3[nH]2)N(C(=O)c2cc(C)sc2-c2ccc(C)c(C)c2)C1 (racemic) [Ex. 6.83] |
| 22 | 20 | C=C1CC(c2nc3cc(OC)ccc3[nH]2)N(C(=O)c2nc(C3CC3)sc2-c2cccc(C)c2)C1 (racemic) [Ex. 6.86] |
| 53 | 17 | C=C1C[C@@H](c2nc3cc(OC)ccc3[nH]2)N(C(=O)c2nc(C)sc2-c2ccc(F)c(Br)c2)C1 [Ex. 6.24] |
| 23 | 70 | COCCn1c([C@]2(C)CCCN2C(=O)c2cc(C)ccc2-c2cccc(C)c2)nc2cc(C)c(C)cc21 [Ex. 7.29] |
| 4950 | 23 | C=C1C[C@@H](c2nc3ccc(OC)cc3[nH]2)N(C(=O)c2cc(C)ccc2-n2cccn2)C1 [Ex. 6.137] |
| 27 | 6 | C=C1C[C@@H](c2nc3cc(Cl)c(C(F)(F)F)cc3[nH]2)N(C(=O)c2cc(OC)c(OC)cc2-n2nccn2)C1 [Ex. 6.186] |
| 112 | 7 | C=C1C[C@@H](c2nc3cccc(C)c3[nH]2)N(C(=O)c2nc(C)sc2-c2ccc(Cl)cc2)C1 [Ex. 6.109] |
| 15 | 4 | C=C1C[C@@H](c2nc3ccc(Cl)c(C)c3[nH]2)N(C(=O)c2nc(C)sc2-c2cc(C)cc(C)c2)C1 [Ex. 6.124] |
| 452 | 67 | C=C1C[C@@H](c2nc3cc(OC)ccc3[nH]2)N(C(=O)c2nc(C)sc2-c2cccc(Cl)c2Cl)C1 [Ex. 6.23] |
| 5 | 4 | C=C1C[C@@H](c2nc3cc(Cl)c(C(F)(F)F)cc3[nH]2)N(C(=O)c2c(-n3nccn3)ccc(C)c2F)C1 [Ex. 6.180] |
| 78 | 77 | COCCn1c([C@]2(C)CCCN2C(=O)c2cc(C)ccc2-n2nccn2)nc2cc(OC)c(OC)cc21 [Ex. 7.46] |
| 7 | 4 | C=C1C[C@@H](c2nc3cc(OC)ccc3[nH]2)N(C(=O)c2nc(C)sc2-c2ccc(C)c(C)c2)C1 [Ex. 6.9] |
| 19 | 23 | C=C1CC(c2nc3cc(C(C)(C)C)ccc3[nH]2)N(C(=O)c2cc(C)sc2-c2ccc(C)c(C)c2)C1 (stereo not shown) [Ex. 6.81] |
| 24 | 15 | C=C1C[C@@H](c2nc3cc(Cl)c(C(F)(F)F)cc3[nH]2)N(C(=O)c2cc(C)ccc2-n2cccn2)C1 [Ex. 6.187] |
| 1530 | 29 | C=C1C[C@@H](c2nc3cc(OC)ccc3[nH]2)N(C(=O)c2cc(F)ccc2-n2nccn2)C1 [Ex. 6.18] |

From US9732075B2, “Benzimidazole-proline derivatives” (IDORSIA PHARMACEUTICALS LTD, priority 2012, dated 2017)
